Test results published in PubChem BioAssay (NCI).
Several values for one entry are separate records, joined by “and”; a condition that tells them apart may be missing. Equal values may be shown once.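 Test compounds were applied to cells in 96-well plates for 48 hours at 5 doses. GI50 = concentration required for 50% inhibition of growth. TGI marks complete inhibition of growth.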

Assays:
Assay in all cases: NCI-60 cell line screen, 48 h
[1] = system: RPMI-8226 leukemia
[2] = system: DMS 114 small cell lung
[3] = system: LXFL 529 NSCLC
[4] = system: NCI-H226 lung
[5] = system: 786-0 renal
[6] = system: SK-MEL-5 melanoma
[7] = system: NCI-H460 lung
[8] = system: HCT-116 colon
[9] = system: T-47D breast
[10] = system: CCRF-CEM leukemia

Structure (SMILES)	GI50 [1] [µM]	TGI [1]	GI50 [2] [nM]	TGI [2]	GI50 [3] [nM]	TGI [3]	GI50 [4] [µM]	GI50 [5] [µM]	TGI [5] [µM]	GI50 [6] [µM]	TGI [6]	GI50 [7] [µM]	TGI [7]	GI50 [8] [µM]	TGI [8] [µM]	GI50 [9] [µM]	TGI [9] [µM]	TGI [4] [µM]	GI50 [10] [µM]	TGI [10] [µM]
COC(=O)C12OCC34C(CC5C(C)C6=CC(=O)OC6=CC5(C)C3C(O)C1O)OC(=O)C(O)C24 (stereo not given)	0.0333	0.116 µM and 0.25 µM	44.1	0.527 µM and 4.35 µM	37.9	737 nM and 1360 nM	0.0875	0.31	5.66	0.373	0.255 µM and 2.31 µM	0.0616	0.716 µM and 1.18 µM	0.224	6.31	–	–	–	–	–
CC1(N)CCN(c2cnc(-c3cccc(Cl)c3Cl)c(N)n2)CC1	13.8	40.1 µM	–	–	–	–	3.2	8.36	22	15.2	28.6 µM	32.7	> 100 µM	14.5	29	17.3	68.4	> 100	23.2	> 100
N#Cc1c(N)nc(N2CCOCC2)c(C#N)c1-c1ccccn1	> 50.3	> 100 µM	–	–	–	–	–	> 100	> 100	> 100	> 100 µM	> 100	> 100 µM	> 100	> 100	48.4	> 100	> 100	> 100	> 100
O=C1OC(=O)C2CCCC3CCCC1C32 (stereo not given)	–	> 100 µM	–	–	–	–	–	–	> 100	–	> 100 µM	–	> 100 µM	–	> 100	–	> 100	> 100	–	> 100
Cc1cccc2c1CCC21OC(=O)c2c1ccc1ccccc21 (stereo not given)	–	–	–	72.4 µM	–	> 100000 nM	–	–	> 100	–	46 µM	–	> 100 µM	–	> 100	–	–	> 100	–	> 100
COC(=O)c1cc2c3ccccc3[nH]c2c2sccc12	15.1	> 100 µM	–	–	–	–	68	13.8	40.7	16.3	35.4 µM	20.1	43.8 µM	34.1	> 100	6.73	47.1	> 100	46	> 100
C/C(=N\NC(=S)SCc1ccccc1)c1ccccn1	–	1.97 µM	–	–	–	–	–	–	10.2	–	5.56 µM	–	10.6 µM	–	5.96	–	> 42.6	1.62	–	< 0.01
O=C1C2C(C(=O)N1c1ccccc1)C1([N+](=O)[O-])C=C3c4ccccc4N(C(=O)c4ccccc4)C32C2C(=O)N(c3ccccc3)C(=O)C21 (stereo not given)	–	–	–	> 100 µM	–	> 100000 nM	–	–	> 100	–	–	–	> 100 µM	–	> 100	–	–	–	–	> 100
CCCCCCCCCNC(=O)/C=C/c1ccc(O)c(O)c1	0.61	19.4 µM	–	–	–	–	10.4	14.3	29.7	1.34	10.8 µM	14.1	57.1 µM	4.94	18.4	15	59.9	25.5	0.0426	1.75
O=C(Nc1cccc(Cl)c1)c1cccc(NC2=C(Cl)C(=O)N(Cc3ccccc3)C2=O)c1	7.58	53.3 µM	–	–	–	–	22.4	35.8	> 100	34	> 100 µM	37	> 100 µM	10.1	42.4	> 100	> 100	> 100	7.2	> 100
CN(C)CCNC(=O)Cn1cnc2cccc([N+](=O)[O-])c2c1=O	–	> 100 µM	–	–	–	–	–	–	> 100	–	> 100 µM	–	> 100 µM	–	> 100	–	> 100	> 100	–	> 100
COc1cc(-c2csc(NC(=O)Nc3ccc(C(F)(F)F)cc3)n2)cc(OC)c1OC	2.26	8.69 µM	–	–	–	–	2.35	1.62	3.54	1.62	3 µM	2.52	7.01 µM	2.32	8.16	1.97	7.65	8.4	3.49	18.9
CC(C)(C)c1ccc(OCCOCCOc2ccc(C(C)(C)C)cc2S(=O)(=O)Nc2ccc([N+](=O)[O-])cc2)c(S(=O)(=O)Nc2ccc([N+](=O)[O-])cc2)c1	–	–	–	> 100 µM	–	–	–	–	> 100	–	> 100 µM	–	> 100 µM	–	> 100	–	–	> 100	–	> 100
